From patent publication EP1916301A1, “METHOD FOR […] USING MOLECULE ON THE RB PATHWAY AS INDEX AND MOLECULAR […]” (BANYU PHARMACEUTICAL CO., LTD., priority 2005, dated 2007)

Tests used:
U-2 OS cell = assay: Cell cycle analysis by flow cytometry (DNA staining) after doxorubicin treatment; type: cell-based; conditions: for cell cycle arrest: 10 nM doxorubicin
Procedure: (§1) First, the U-2 OS cell and U-2 OS shRb cell were treated with 10 nM doxorubicin. The cells were collected after 24 hours and 48 hours, and the DNA of the cells were stained with the Cycle TESTTM PLUS DNA Reagent Kit (Becton Dickinson), and an analysis was carried out by flow cytometry.
(§2) Further, in what phase the respective cells were maintained in the cell cycle under the respective conditions is shown in Table 2. (Table 2)

U-2 OS shRb cell = assay: Cell cycle analysis by flow cytometry (DNA staining) after doxorubicin treatment, Rb knockdown cell; type: cell-based
Procedure: Into U-2 OS cells with wild-type Rb, pSuperior-puro.shRb vector was transfected using Funege 6. After the transfected cells were cultured for 24 hours, the cells were cultured such that the number of cells became about one fiftieth, and then, the cells were cultured for about two weeks in the presence of 1.0 µg/mL of puromycin. A cell that formed a colony was isolated by a cylinder cloning method. Hereinafter, the established Rb knockdown cell was referred to as U-2 OS shRb.
as §1, §2

[1] = 10 nM doxorubicin for 24 hours, cell having only a vector introduced (Fig. 4)
[2] = 10 nM doxorubicin for 48 hours, cell having only a vector introduced (Fig. 5)
[3] = 10 nM doxorubicin for 24 hours, cell having an Rb shRNA introduced (Fig. 7)
[4] = 10 nM doxorubicin for 48 hours, cell having an Rb shRNA introduced (Fig. 8)

COc1cccc2c1C(=O)c1c(O)c3c(c(O)c1C2=O)C[C@@](O)(C(=O)CO)C[C@@H]3O[C@H]1C[C@H](N)[C@H](O)[C@H](C)O1 [doxorubicin]
G1 (%) (U-2 OS cell; [1]): 20%
G2/M (%) (U-2 OS cell; [1]): 68%
S (%) (U-2 OS cell; [1]): 11%
G1 (%) (U-2 OS cell; [2]): 29%
G2/M (%) (U-2 OS cell; [2]): 66%
S (%) (U-2 OS cell; [2]): 5.4%
cell cycle arrest (U-2 OS cell; at 24 hours after the treatment): arrested in the G2/M phase
cell cycle arrest (U-2 OS cell; at 48 hours after the treatment): arrested in the G2/M phase
G1 (%) (U-2 OS shRb cell; [3]): 35%
G2/M (%) (U-2 OS shRb cell; [3]): 45%
S (%) (U-2 OS shRb cell; [3]): 19%
G1 (%) (U-2 OS shRb cell; [4]): 62%
G2/M (%) (U-2 OS shRb cell; [4]): 23%
S (%) (U-2 OS shRb cell; [4]): 16%
cell cycle arrest (U-2 OS shRb cell; 10 nM doxorubicin, at 24 hours after the treatment): arrested in the G2/M phase
G2/M phase arrest (U-2 OS shRb cell; 10 nM doxorubicin, at 48 hours after the treatment): not maintained
